Experimental data as given in patent US7008632B2, “Combination of biological and chemical agents to combat rodents” (priority 2000, dated 2006).
Marks after values point to notes of the source that are not given here.

Experiments:
Rattus norvegicus = conditions: non-resistant rats; cited from earlier work
[1] = test system: feral adult brown rats (Rattus norvegicus); test: Experiment using feral adult brown rats: mortality after gavage of sporocysts, coumatetralyl or the combination; format: in vivo; conditions: single gavage; 10 000 sporocysts and/or 6 mg of coumatetralyl per kg of body weight
Experimental: Experiment Using Feral Adult Brown Rats (Rattus norvegicus)
The mortality was determined.
The rats were raised under standard conditions in the laboratory. During the experiment and the 2-week preparation, they were kept individually in cages made of Makrolon. Sporocyst suspension and coumatetralyl were administered by gavage, and during the administration the animals were anesthetized lightly using diethyl ether.

| Compound | LD50 (acute oral) (Rattus norvegicus) | Mortality % [1] |
| --- | --- | --- |
| O=c1oc2ccccc2c(O)c1C1CC(c2ccc(-c3ccc(Br)cc3)cc2)Cc2ccccc21 (stereo not drawn) [brodifacoum] | 0.2 mg/kg |  |
| O=c1oc2ccccc2c(O)c1C(CC(O)c1ccc(-c2ccc(Br)cc2)cc1)c1ccccc1 (stereo not drawn) [bromadiolone, 3-(4′-hydroxy-3′-coumarinyl)-3-phenyl-1-(4′-bromo-4′-biphenyl)-propan-1-ol] | 2.0 mg/kg |  |
| O=c1oc2ccccc2c(O)c1C1CCCc2ccccc21 (stereo not drawn) [coumatetralyl, 3-(1′,2′,3′,4′-tetrahydro-1′-naphthyl)-4-hydroxycoumarin] |  | 17* % |
